Results published in patent US20200216493A1, “ANTIMICROBIAL PEPTIDES” (FERRING B.V., priority 2016, published 2020).
Converted amounts (≈) assume the structure as drawn. Where two headings read alike, the source gives them in different places.

Columns and labels:
[1] = system: S. pneumoniae (8 isolates); type: cell-based, Streptococcus pneumonia; conditions: 20 h
Procedure: (§1) The broth microdilution susceptibility assay followed the procedure described by the Clinical and Laboratory Standards Institute (CLSI) in CLSI document M7-A10.
(§2) The following bacteria isolates were tested:
(§3) S.aureus, S.epidermidis, E.faecalis, and E.faecium colonies were grown on TSA (Tryptone Soya Agar; cat.N. P05012A -OXOID) S.pneumoniae and S.pyogenes colonies were grown on TSASB ((TSA) Agar +5% Sheep Blood; cat.N. PB5012A -OXOID). An inoculum was prepared by making a direct saline suspension of isolated colonies selected from an 18 to 24 hours agar plate incubated at 35±2 ° C. in ambient air. The suspension was adjusted to achieve a turbidity equivalent to a 0.5 McFarland turbidity standard (1 to 2 ×10^8 Colony Forming Units (CFU)) and diluted 200 fold within 15 minutes in broth. (S.aureus, S.epidermidis, E.faecalis, and E.faecium were diluted in CAMHB: Mueller Hinton Broth 2, Cation-Adjusted (cat. N. 90922 Fluka); S.pneumoniae and S.pyogenes were diluted in CAMHB +2.5% lysed horse blood. All broth contained 0.002% polysorbate 80.
(§4) 96-well plates were prepared containing 1 μL of the test compound (at 100× desired test concentration in 100% DMSO); compounds were tested at 8 final concentrations, i.e. 16 μg/mL, 8 μg/mL, 4 μg/mL, 2 μg/mL, 1 μg/mL, 0.5 μg/mL, 0.25 μg/mL, and 0.125 μg/mL. 100 μL of the broth dilution was dispensed in each well plate to have a final bacterial concentration in plate of ˜5×10^5 CFU/mL. The plates were incubated at 35±2° C. in ambient air for 20 hours.

S. pyogenes (2 isolates) = type: cell-based, Streptococcus pyogenes; conditions: 20 h
Procedure: as §1, §2, §3, §4

[2] = system: S. epidermidis (5 isolates); type: cell-based, Staphylococcus epidermidis; conditions: 20 h
Procedure: as §1, §2, §3, §4

in vitro = type: cell-based; conditions: human, HepG2 cells
Procedure: Compounds were tested for cytotoxicity to a mammalian cell line HepG2 (Human hepatocyte carcinoma from ECACC (85011430)). Hep G2 cells were seeded into 96-well plates, 7500 cells/well in 100 μl medium (Minimum Essential Medium (Gibco 21090) supplemented with 2 mM L-Glutamine, 1% non-essential amino acids and 10% fetal bovine serum) and incubated for 20 hours at 37° C., 5% CO2. 100 μL of fresh medium containing a test compound or DMSO (for control) at 2× final concentration were added and incubated for 48 hours at 37° C., 5% CO2. The final concentration of DMSO in plate was 1%. At the end of this incubation, 20 μl MTT (Thiazolyl Blue Tetrazolium Bromide) solution 5 mg/ml in H2O (0.5 mg/ml final in well) was added to all wells. Cells were incubated with MTT for 4 hours at 37° C., 5% CO2. After incubation, medium containing MTT was removed; 200 μl of DMSO was added in each well and plates were put on a shaker for 5 minutes. Absorbance was read on a SpectraMax plate reader at 570 nm. Specific absorbance (Specific A570) was calculated by subtracting the mean absorbance values of the blank wells (no HepG2 cells) from each well. Control values were determined from wells containing cells and treated with medium+1% DMSO only (no test compound). % viability was calculated as:
(Specific A570test compound/Specific A570control)×100.

S. aureus (14 isolates) = type: cell-based, Staphylococcus aureus; conditions: 20 h
Procedure: as §1, §2, §3, §4

E. faecalis (5 isolates) = type: cell-based, Enterococcus faecalis; conditions: 20 h
Procedure: as §1, §2, §3, §4

S.aureus = type: cell-based, Staphylococcus aureus
Procedure: (§5) This assay was used to determine the minimum concentration of a test compound (i.e., an antimicrobial peptide described herein) able to inhibit the growth of a bacterial strain of interest. This is a standard method for measuring and comparing the potency of peptide-based antibacterial agents (Steinberg et al., Antimicrobial Agents and Chemotherapy 1997, 41 (8) 1738 - 1742 and Wiegand et al., Nature Protocols 2008, 3, 163-175).
(§6) The MIC is reported in units of μg/mL.
(§7) Bacterial cultures were grown by inoculating Mueller-Hinton Broth (MHB) with 3 or 4 representative colony (typical size, color, and shape) from a bacterial strain grown on a LB agar plate. Inoculated liquid cultures were grown at 37° C. with moderate shaking (200-250 rpm) until bacteria produced a visibly turbid suspension. Bacterial inoculum was approximated by measuring the optical density at 600 nm (0D600) of the bacterial culture against a sterile MHB blank. Typically, OD600=0.10 corresponds to ˜1×10^8 cfu/mL for S.aureus and OD600 =0.15 corresponds to ˜1×10^8 cfu/mL for E.coli.
(§8) Test compounds were prepared as stock solutions in vehicle at a concentration 10 times the highest concentration to be tested for antibacterial activity (usually 320 μg/mL stock solutions). 2x serial dilutions in vehicle (at 10× the final test concentrations) of the test compounds were prepared from the test compound stock solutions in a non-binding 96 well plate.
(§9) In a sterile clear flat bottom 96 well plate, 15 μL of each test compound dilution was added to 135 μL of ˜5×10^5 cfu/mL bacterial culture. Each concentration was tested in duplicate. Each experiment contained positive control wells for bacterial growth (i.e., no test compound added to bacteria) and sterility controls wells (i.e., sterile MHB and no test compounds added). 96 well plates containing bacterial cultures and test compounds were incubated at 37° C. for 16-20 hours with shaking at 200 rpm.
(§10) After incubation, the MIC of each test compound was determined by measuring the OD600 of each well using a plate reader. Wells with OD600 >0.08 were considered to have bacterial growth and wells with OD600<0.08 were considered to have no bacterial growth. The lowest concentration of test agent able to inhibit bacterial growth (0D600<0.08 after 16-20 hours) was defined as the MIC.

E.coli = type: cell-based, Escherichia coli; conditions: for MIC ratio Coli/Staph: ratio of E. coli MIC to S. aureus MIC
Procedure: as §5, §6, §7, §8, §9, §10

E. faecium (3 isolates) = type: cell-based, Enterococcus faecium; conditions: 20 h
Procedure: as §1, §2, §3, §4

Structure (SMILES)	S. pneumoniae (8) MIC90 [1]	S. pyogenes (2) MIC90 (S. pyogenes (2 isolates))	S. epidermidis (MIC90) (5) [2]	viability at 48 h, 100 µM (in vitro)	MIC B. fragilis (B. fragilis)	S. Aureus (14) MIC90 (S. aureus (14 isolates))	E. faecalis (5) MIC90 (E. faecalis (5 isolates))	MIC C. difficile (C. difficile; anaerobic broth microdilution, read after 44-48 hours, Example 17b)	MIC S. aureus (S.aureus)	MIC E. coli (E.coli)	MIC ratio Coli/Staph (E.coli)	E. faecium (3) MIC90 (E. faecium (3 isolates))	MIC C. difficile (C. difficile)
CC[C@H](C)[C@H](NC(=O)[C@@H](Cc1ccccc1)NC)C(=O)N[C@@H](CO)C(=O)N[C@H](CCC(N)=O)C(=O)N[C@@H](C(=O)N[C@H](C(=O)N[C@@H](CO)C(=O)N[C@H]1C(=O)N[C@@H](C)C(=O)N[C@@H](CCCCNC(=N)N)C(=O)N[C@@H]([C@@H](C)CC)C(=O)O[C@H]1C)[C@@H](C)CC)[C@@H](C)CC [Compound 5, H-D-MePhe-Ile-Ser-D-Gln-D-aIle-Ile-Ser-c(D-Thr-Ala-Har-Ile)]	≤0.12 µg/mL	≤0.12 µg/mL	≤0.12 µg/mL	117%	>32 µg/mL	0.25 µg/mL	0.5 µg/mL	<0.03 to 0.06 µg/mL	0.13 µg/mL (≈ 0.103 µM)	10 µg/mL (≈ 7.95 µM)	77	0.5 µg/mL	
CC[C@H](C)[C@H](NC(=O)[C@@H](Cc1ccc(Cl)cc1)NC)C(=O)N[C@@H](CO)C(=O)N[C@H](CCC(N)=O)C(=O)N[C@@H](C(=O)N[C@H](C(=O)N[C@@H](CO)C(=O)N[C@H]1C(=O)N[C@@H](C)C(=O)N[C@@H](CCCCNC(=N)N)C(=O)N[C@@H]([C@@H](C)CC)C(=O)O[C@H]1C)[C@@H](C)CC)[C@@H](C)CC [Compound 70, H-D-MePhe(4-Cl)-Ile-Ser-D-Gln-D-aIle-Ile-Ser-c(D-Thr-Ala-Har-Ile)]	≤0.12 µg/mL	≤0.12 µg/mL	≤0.12 µg/mL	114%	>32 µg/mL	≤0.12 µg/mL	0.25 µg/mL		0.03 to 0.06 µg/mL	>16 µg/mL	>530	≤0.12 µg/mL	0.015 to 0.03 µg/mL
CC[C@H](C)[C@H](NC(=O)[C@@H](Cc1ccccc1)NC)C(=O)N[C@@H](CO)C(=O)N[C@H](CCC(N)=O)C(=O)N[C@@H](C(=O)N[C@H](C(=O)N[C@@H](CO)C(=O)N[C@H]1C(=O)N[C@@H](C)C(=O)N[C@@H](CCCCNCc2ccccc2)C(=O)N[C@@H]([C@@H](C)CC)C(=O)O[C@H]1C)[C@@H](C)CC)[C@@H](C)CC [Compound 71, H-D-MePhe-Ile-Ser-D-Gln-D-aIle-Ile-Ser-c(D-Thr-Ala-Lys(Bn)-Ile)]	≤0.12 µg/mL	≤0.12 µg/mL	≤0.12 µg/mL	92%	>32 µg/mL	≤0.12 µg/mL	0.5 µg/mL		0.03 to 0.06 µg/mL	>16 µg/mL	>530	0.5 µg/mL	0.03 to 0.06 µg/mL
